# In patent US20260138969A1 (Korea Research Institute of Chemical Technology, priority 2023, published 2026):
# Legend:
# PC12 cells = test: Neuronal protective efficacy against 6-OHDA (MTT); type: cell-based; settings: Rattus norvegicus, PC-12, 6-OHDA 40 μM, Control = 100, read-out: cell viability (AVE); for viability at 0.1 µM: compound 0.1 μM; for viability at 0.3 µM: compound 0.3 μM; for viability at 1 µM: compound 1 μM
# Protocol: The neuronal toxicity substances 6-OHDA (6-hydroxydopamine hydrobromide) and MPP+ (1-methyl-4-phenylpyridinium) were purchased from Sigma-Aldrich (Saint Louis, MO, USA) and made into 100 mM DMSO stock. PC12 cells were seeded on 96-well plates with 4 pieces of 1×10 per well and incubated for one day. The cells were pretreated with each concentration of embodied compound for 1 h. Subsequently, 40 μM 6-OHDA and 2 mM MPP^+ were added and incubated for 24 hours, respectively. Subsequently, cell viability was measured using MTT (Invitrogen, MA, USA).
# [1] = tested on: MPTP-induced PD mouse model; test: MPTP-induced PD mouse model: dopamine by LC-MS/MS; type: in vivo; settings: vs MPTP alone group
# Protocol: Mice at 7 weeks of age were divided into 7 groups as shown in Table 9 below to generate an acute MPTP model and proceed with drug administration: control group+vehicle (G1), MPTP+vehicle (G2), MPTP+Nilotinib 40 mg/kg (G3), MPTP+Example 3 2 mg/kg (G4), MPTP+Example 3 10 mg/kg (G5), MPTP+Example 3 50 mg/kg (G6), and MPTP+Example 2 50 mg/kg (G7). The test drug was administered orally (PO) at 10 ml/kg once daily (QD) from Day 1 to Day 7. The acute MPTP model will be performed at 2-hour intervals in all groups except the control group. […] was administered as intraperitoneal (IP) injection for 4 doses. The control group was given the same amount of 0.9% saline. The Pole test was performed on day 4 (after training on day 2 and day 3). On day 7, all mice were euthanized, and their brains were harvested.
# The amount of dopamine was measured by LC-MS/MS analysis using Agilent 1290 (LC) and SCIEX QTARP 6500+ (QQQ) for the striatum and substantia nigra of the extracted brain tissue.
# [2] = tested on: α-Syn transgenic Parkinson's disease mouse model; test: α-Syn transgenic Parkinson's disease mouse model: step error (beam test); type: in vivo; settings: at 7 and 9 months; Memantine 10 mg/kg, Example 3 2/10/50 mg/kg, Example 2 2 mg/kg PO QD; vs G2
# Protocol: The test drug was administered once daily (QD) via oral administration (PO) with a solution of 5 ml/kg for 5 months from 4 months to 9 months of age. Motor behavior tests (beam test) and neurological scores (modified Irwin test) were performed at 4 months (before administration), 7 months, and 9 months. After the final behavioral test, tissue samples were taken. Weight was measured on the same day once a week from 4 months of age until the end of the study.
# The procedure described by Fleming et al. (J Neurosci, 24:9434-40, 2004) was adopted as the beam test (Challenging Beam Traversal). Exercise capacity was measured with a new beam test that was a modification of the existing beam walking test. The beam is made of Plexiglas and consists of four sections (each 25 cm and a total length of 1 m), each with a different width. The beam is designed to start at 3.5 cm wide and gradually narrow in increments of 0.5 cm×1 cm. A shelf 1 cm wide was placed 1.0 cm below the top surface of the beam.
# The mouse was trained to cross the length of the beam, starting from the widest section and ending with the narrowest and most difficult section. The narrow end of the beam is designed to connect directly to the mouse's house cage. The mice were trained for two days before testing, and all training was carried out without a mesh grid. On the first day, two auxiliary exercises were performed, in which the mouse was placed on a beam and the home cage was placed close to the mouse. This induces it to move forward along the beam. […]
# The error was counted if the limb (front or hind leg) passed through the grid during forward movement and was visible between the grid and the beam surface. […] Error was measured by scoring each limb slippage individually. For example, a mouse with three limbs slipping off the grid in one step was rated with an error score of 3 points, while a mouse with only one limb slipped off the grid in one step was evaluated with an error score of 1 in that step. […] The number of step errors and the time it took to cross were measured and averaged in all five experiments.
# [3] = tested on: CDAHFD-induced non-alcoholic steatohepatitis mouse model; test: CDAHFD-induced non-alcoholic steatohepatitis mouse model: liver fibrosis (Picrosirius red); type: in vivo; settings: for Picrosirius red staining area in the liver: Selonsertib 30 mg/kg, Example 3 10 and 30 mg/kg, Example 2 10 and 30 mg/kg PO QD, CDAHFD diet 4 and 8 weeks
# Protocol: Creation of CDAHFD-induced NASH model and drug administration were carried out by dividing C57BL/6 male mice at 3 weeks of age into 7 groups as shown in Table 16 below. The control group (G1) was fed standard feed and water. Groups G2 to G7 were fed the CDAHFD (Research Diet Inc, #A06071302) diet for 4 and 8 weeks.
# Picrosirius red staining was used for histological visualization of collagen fibers. Histopathology analysis evaluated the efficacy of improving liver fibrosis.
# For mice in each group, three sections of the liver fixed with 4% PFA (paraformaldehyde) were prepared with paraffin blocks. Paraffin blocks were sectioned to a thickness of 5 μm (Histocore AUTOCUT R, Leica Microsystems, Germany) and the sections were mounted on silane-coated slides (MUTO, JPN) and stored until staining.
# Xylene was used to remove paraffin from the slides, and the slides were moisturized and washed. The slides were stained with a solution of Picrosirius red (ab150681, Abcam, UK) and washed off with a solution of acetic acid. The slides were fitted after dehydration and cleaning using alcohol and xylene. For each section, two images of different areas were taken using a microscope (Axioscan7, ZEISS, Germany). The fibrotic area was measured using image J software compared to the total area. FIGS. 23a and 23b are graphs and images of Picrosirius red stained area ratios in the liver of a CDAHFD-induced mouse model of nonalcoholic steatohepatitis.
SMILES,viability at 0.1 µM (PC12 cells),viability at 0.3 µM (PC12 cells),viability at 1 µM (PC12 cells),dopamine concentration in the substantia nigra ([1]; 2 mg/kg PO QD),dopamine concentration in the substantia nigra ([1]; 10 mg/kg PO QD),number of step errors (beam test) [2],Picrosirius red staining area in the liver [3],dopamine concentration in the striatum ([1]; 50 mg/kg PO QD),dopamine concentration in the substantia nigra ([1]; 50 mg/kg PO QD),"efficacy in improving liver fibrosis (Picrosirius red) ([3]; 30 mg/kg PO QD, after 4 weeks of the CDAHFD diet)"
"Cc1cc(F)c(C(=O)Nc2cccc(-n3nnc4c3CCCC4)n2)cc1-n1cnc(C2CC2)c1 [Example 3, 5-(4-cyclopropyl-1H-imidazole-1-yl)-2-fluoro-4-methyl-N-(6-(4,5,6,7-tetrahydro-1H-benzo[d][1,2,3]triazole-1-yl)pyridine-2-yl)benzamide]",90%,92%,92.8%,significantly increased,significantly increased,significant reduction in the number of step errors compared to Group G2,significantly reduced,–,–,–
"Cc1cc(F)c(C(=O)Nc2cccc(-n3nnc4c3CCC4)n2)cc1-n1cnc(C2CC2)c1 [Example 2, 5-(4-cyclopropyl-1H-imidazole-1-yl)-N-(6-(5,6-dihydrocyclopenta[d][1,2,3]triazole-1 (4H)-yl)pyridine-2-yl)-2-fluoro-4-methylbenzamide]",88.8%,91.5%,96.8%,–,–,significant reduction in the number of step errors compared to Group G2,significantly reduced,significantly increased,significantly increased,most improved efficacy
